Experimental findings from US7351728B2, “Oxazolyl-aryloxyacetic acid derivatives and their use as PPAR agonists” (Eli Lilly and Company, priority 2003, dated 2008) are described below.

The subject of series [1] is HuapoAI transgenic mice. Description: Evaluation of triglyceride and cholesterol level in HuapoAI transgenic mice. The note with it: Mus musculus, 168 h, 30 mg/kg daily oral gavage 7 days. Type of series: in vivo. Here is the method: Five to six week old male mice, transgenic for human apoAI [C57Bl/6-tgn(apoa1)lrub, Jackson Laboratory, Bar Harbor, Me.] were housed five per cage (10″×20″×8″ with aspen chip bedding) with food (Purina 5001) and water available at all times. After an acclimation period of 2 weeks, animals were individually identified by ear notches, weighed, and assigned to groups based on body weight. Beginning the following morning, mice were dosed daily by oral gavage for 7 days using a 20 gauge, 1½″ curved disposable feeding needle (Popper & Sons). Treatments were test compounds (30 mg/kg), a positive control (fenofibrate, 100 mg/kg) or vehicle [1% carboxymethylcellulose (w/v)/0.25% Tween80 (w/v); 0.2 ml/mouse]. Prior to termination on day 7, mice were weighed and dosed. Three hours after dosing, animals were anesthetized by inhalation of isoflurane (2-4%; Abbott Laboratories, Chicago, Ill.) and blood obtained via cardiac puncture (0.7-1.0 ml). Whole blood was transferred to serum separator tubes (Vacutainer SST), chilled on ice, and permitted to clot. Serum was obtained after centrifugation at 4° C. and frozen until analysis for triglycerides, total cholesterol, compound levels, and serum lipoprotein profile by fast protein liquid chromatography (FPLC) coupled to an inline detection system. After sacrifice by cervical dislocation, the liver, heart and epididymal fat pads were excised and weighed.
The animals dosed with vehicle had average triglycerides values of 60-80 mg/dl, which were reduced by the positive control fenofibrate (33-58 mg/dl with a mean reduction of 37%). The animals dosed with vehicle had average total serum cholesterol values of 140-180 mg/dl, which were increased by fenofibrate (190-280 mg/dl, with a mean elevation of 41%). […] Fenofibrate increased the amount of HDLc (68-96 v-sec with a mean percent increase of 48%).
Glucose was measured colorimetrically using commercially purchased reagents (Sigma #315-500). According to the manufacturers, the procedures were modified from published work (McGowan, M. W., Artiss, J. D., Strandbergh, D. R. & Zak, B. Clin Chem, 20:470-5 (1974) and Keston, A. Specific colorimetric enzymatic analytical reagents for glucose. Abstract of papers 129th Meeting ACS, 31C (1956).); and depend on the release of a mole of hydrogen peroxide for each mole of analyte, coupled with a color reaction first described by Trinder (Trinder, P. Determination of glucose in blood using glucose oxidase with an alternative oxygen acceptor. Ann Clin Biochem, 6:24 (1969)). The absorbance of the dye produced is linearly related to the analyte in the sample. The assays were further modified in our laboratory for use in a 96 well format. Standards (Sigma #339-11, Sigma #16-11, and Sigma #CC0534 for glucose triglycerides and total cholesterol, respectively), quality control plasma (Sigma # A2034), and samples (2 or 5 μl/well) were measured in duplicate using 200 μl of reagent. An additional aliquot of sample, pipetted to a third well and diluted in 200 μl water, provided a blank for each specimen. Plates were incubated at room temperature (18, 15, and 10 minutes for glucose, triglycerides and total cholesterol, respectively) on a plate shaker (DPC Micormix 5) and absorbance read at 500 nm (glucose and total cholesterol) or 540 nm (triglycerides) on a plate reader (Wallac Victor 1420). Sample absorbances were compared to a standard curve (100-800, 10-500, and 100-400 mg/dl for glucose, triglycerides and total cholesterol, respectively). Values for the quality control sample were always within the expected range and the coefficient of variation for samples was below 10%. All samples from an experiment were assayed at the same time to minimize inter-assay variability.
Serum lipoproteins were separated and cholesterol quantitated with an in-line detection system. Sample was applied to a Superose® 6 HR 10/30 size exclusion column (Amersham Pharmacia Biotech) and eluted with phosphate buffered saline-EDTA at 0.5 ml/min. […]

The structures appear in SMILES notation.

For the compound `CC(C)(Oc1ccc(OCCc2coc(-c3ccccc3)n2)cc1)C(=O)[O-].[Na+]` [Example 3, Sodium 2-methyl-2-{4-[2-(2-phenyloxazol-4-yl)ethoxy]phenoxy}propionate], the melting point lay within 199 to 200 °C. The compound also came in with a change in vivo at 30 mg/kg in series [1] (percent increase in FPLC HDLc area under the curve) of 63%. In addition, in series [1] (serum, male human apoAI transgenic mice, read-out: % Triglyceride Reduction), the inhibition in vivo at 30 mg/kg worked out at 66%.

The compound `C#Cc1cccc(-c2nc(CCOc3ccc(OC(C)(C)C(=O)O)cc3)c(C)o2)c1` [Example 10, 2-(4-{2-[2-(3-Ethynylphenyl)-5-methyloxazol-4-yl]ethoxy}phenoxy)-2-methylpropionic acid] displayed a melting point of 131 to 134 °C. In the case of `C=Cc1cccc(-c2nc(CCOc3ccc(OC(C)(C)C(=O)O)cc3)c(C)o2)c1` [Example 10A, 2-Methyl-2-(4-{2-[5-methyl-2-(3-vinylphenyl)oxazol-4-yl]ethoxy}phenoxy)propionic acid], the melting point fell in the range of 137 to 139 °C. The same measure, in the same setting: under `C#Cc1ccc(-c2nc(CCOc3ccc(OC(C)(C)C(=O)O)cc3)c(C)o2)cc1` [Example 11, 2-(4-{2-[2-(4-Ethynylphenyl)-5-methyloxazol-4-yl]ethoxy}phenoxy)-2-methylpropionic acid] stands 137 to 139 °C. On the same count and under the same terms, for `Cc1oc(-c2ccc(C(N)=O)cc2)nc1CCOc1ccc(OC(C)(C)C(=O)O)cc1` [Example 14, 2-(4-{2-[2-(4-Carbamoylphenyl)-5-methyloxazol-4-yl]ethoxy}phenoxy)-2-methylpropionic acid] the value was 126 to 127 °C. In turn, `Cc1oc(-c2ccccc2)nc1CCOc1cccc(OC(C)(C)C(=O)O)c1` [Example 23, 2-methyl-2-{3-[2-(5-methyl-2-phenyloxazol-4-yl)ethoxy]phenoxy}propionic acid] returned a melting point of 140 to 141 °C. For `Cc1cc(OCCc2nc(-c3ccccc3)oc2C)ccc1OCC(=O)O` [Example 25, {2-Methyl-4-[2-(5-methyl-2-phenyloxazol-4-yl)ethoxy]phenoxy}acetic acid], the melting point stood at 133 °C. On the same count and under the same terms, under `Cc1sc(-c2ccccc2)nc1CCOc1ccc(OC(C)(C)C(=O)O)cc1` [Example 35, 2-Methyl-2-{4-[2-(5-methyl-2-phenyl-thiazol-4-yl)-ethoxy]phenoxy}-2-methyl-propionic acid] stands 163.5 °C.

The term melting point denotes the temperature, or range, at which the solid turns liquid.
